# Test results taken from patent US5834481A, “Heterotricyclically substituted phenyl-cyclohexane-carboxylic acid derivatives” (Bayer Aktiengesellschaft, priority 1993, dated 1998).
# Test system: smooth muscle cells obtained from the aortas of rats
# Experiment: Inhibition of the proliferation of smooth muscle cells (3H-thymidine incorporation)
# Type: cell-based
# Conditions: semi-maximum inhibition of the thymidine incorporation produced by 10% FCS; rat aortic smooth muscle cells
# Description: Investigation of the inhibition of the proliferation of smooth muscle cells by the compounds according to the invention
# To determine the antiproliferative action of the compounds, smooth muscle cells are used which are obtained from the aortas of rats by the media explant technique [R. Ross, J. Cell, Biol. 50, 172, 1971]. The cells are inoculated into suitable culture dishes, as a rule 96-hole plates, and cultured at 37° C. in 5% CO2 for 2-3 days in medium 199 containing, 7.5% FCS and 7.5% NCS, 2mM L-glutamine and 15 mM HEPES, pH 7.4. The cells are then synchronized for 2-3 days by withdrawal of serum and then stimulated into growth using […] or other factors. Test compounds are simultaneously added. After 16-20 hours, 1 μCi ^3 H-thymidine is added and after a further 4 hours the incorporation of this substance into the TCA-precipitable DNA of the cells is determined. To determine the IC50 values, the active compound concentration is calculated which, on sequential dilution of the active compound, causes semi-maximum inhibition of the thymidine incorporation produced by 10% FCS.
smiles,measurement,value
"Cc1cc(C)c2c3c(n(Cc4ccc(C5CCCCC5C(=O)N[C@H](CO)c5ccccc5)cc4)c2n1)CCCC3 (single isomer, unassigned) [Example 27]",IC50,580 nM
"O=C(N[C@H](CO)c1ccccc1)C1CCCCC1c1ccc(Cn2c3ccccc3c3ccncc32)cc1 (single isomer, unassigned) [Example 30]",IC50,0.1 nM
"O=C(N[C@H](CO)c1ccccc1)C1CCCCC1c1ccc(Cn2c3ccccc3c3cccnc32)cc1 (single isomer, unassigned) [Example 32]",IC50,2 nM
"O=C(N[C@H](CO)c1ccccc1)C1CCCCC1c1ccc(Cn2c3c(c4cccnc42)CCCCC3)cc1 (single isomer, unassigned) [Example 50]",IC50,0.9 nM
